Data as given in publication PMC5505701, “Somatostatin binds to the human amyloid β peptide and favors the formation of distinct oligomers” (eLife, 2017).
“Also recorded” adds a separate entry of the source. No end group written: not given here.

Experiments:
[1] = test system: oligomeric versus monomeric Aβ1-42 (Aβ1-42-biotin bait); test: Affinity capture interactome Experiment III (oAβ1-42-biotin vs mAβ1-42-biotin); conditions: TMT; for Experiment III oAβ1-42-B/mAβ1-42-B Ratio: oligomeric versus monomeric bait, human frontal lobe digitonin extract, pH 8.0, 4°C overnight
[2] = molecular target: Aβ1-42-TMR (Homo sapiens, UniProt P05067); test: FRET competition assay (Edans-SST14 / Aβ1-42-TMR)
[3] = molecular target: T1, Aβ1-40 (Homo sapiens, UniProt P05067); test: ThT fluorescence Aβ1-40 aggregation assay; assay type: biochemical; conditions: 5 to 10 times higher peptide concentrations
T1 construct: Aβ1-40 (catalog number AS-24236); purchased Anaspec, Inc. (Fremont, CA, USA) AS-24236; host or cells: synthetic peptide
Text: (§1) Next, Western blot analyses of ThT assay fractions were undertaken without or with prior boiling in SDS. […] Only when SDS was present in the sample buffer, low mass bands appeared in the Western blot that migrated at a level expected for the monomeric Aβ peptide, consistent with the interpretation that these peptides were released from larger oligomeric or fibrillar aggregates under denaturing conditions (see also Figure 5).
(§2) Assay procedures were largely based on a protocol described by Sarah Linse’s group ([Hellstrand et al., 2010]). […] 100 μL of peptide solutions were supplemented with 25 μM thioflavin T (ThT) (catalog number T3516, Sigma-Aldrich Canada, Oakville, ON, Canada) and loaded into 96-Well Half-Area Microplates (catalog number 675096, Greiner Bio One International, Kremsmünster, Austria). The subsequent plate incubation proceeded at 37°C with shaking at 700 rpm for 4 of every 5 min in a microplate reader (CLARIOstar, BMG Labtech, Guelph, ON, Canada) for overall durations specified in individual figures. ThT fluorescence was measured every 5 min at excitation and emission wavelengths of 444 nm and 485 nm, respectively.

[4] = molecular target: T2, Aβ1-42 (Homo sapiens, UniProt P05067); test: Thioflavin T (ThT) fluorescence Aβ1-42 aggregation assay; assay type: biochemical
T2 construct: purchased Anaspec, Inc. (Fremont, CA, USA) AS-24224; host or cells: synthetic peptide
Protocol: as §2

[5] = molecular target: T2, Aβ1-42; test: Western blot / silver stain detection of Aβ1-42 after incubation with SST14 or CST17; assay type: biochemical
Protocol: Initially, we were interested in observing the influence of incubation time on sample composition (Figure 5B).

[6] = molecular target: T2, Aβ1-42; test: Western blot of ThT assay fractions: oligomeric complexes of Aβ1-42; assay type: biochemical; conditions: for SDS-stable complex with three Aβ1-42 peptides: five-fold increased Aβ1-42 level
Text: as §1

[7] = test system: tau phosphorylated at pSer202/pThr205 (AT8) and pThr231 (AT180) in primary hippocampal neurons; test: Primary hippocampal neuron tau phosphorylation assay (Western blot); conditions: for effect on oAβ1-42-induced tau hyperphosphorylation: peptide added together with oAβ1-42; for reduction in tau phosphorylation at AT8, pre-aggregated peptide alone: peptide subjected to pre-aggregation step, no Aβ
[8] = test system: oligomeric Aβ1-42 (oAβ1-42-biotin bait); test: Affinity capture interactome Experiment II (C-terminally tethered oAβ1-42-biotin vs biotin); conditions: enrichment relative to biotin-only negative control; human frontal lobe digitonin extract; TMT; pH 8.0, 4°C overnight
[9] = test system: Aβ1-42 and Aβ17-42 biotin baits; test: iTRAQ affinity capture with four baits (biotin, biotin-Aβ1-42, Aβ1-42-biotin, Aβ17-42-biotin); assay type: binding; conditions: oAβ1-42-biotin versus N-terminally biotinylated Aβ1-42, Aβ17-42-biotin and biotin; human frontal lobe extract
Text: This conclusion was strengthened by the fact that this peptide is naturally preceded by a tryptic cleavage site and the exquisite match between observed and in silico predicted fragment ions (Figure 2B). In light of the high intensity ion counts of fragments observed for this peptide and its robust co-enrichment with oAβ1-42-B in three biological replicates (Figure 2C), it first seemed puzzling that the identification of this protein group was not corroborated by other spectra that map to sequences outside of the ‘NFFWK’ sequence stretch. Searching for a plausible explanation, it became apparent that preprosomatostatin and preprocortistatin give rise to cyclic neuropeptide hormones through a series of posttranslational trimming steps, and the ‘NFFWK’ peptide is the only tryptic peptide derived from the mature hormone that is of sufficient length and distinct sequence to be readily identifiable by MS (Figure 2A). […] This conclusion was further corroborated by two additional PSMs that mapped to regions outside the SST14 neuropeptide sequence and one additional five amino acid peptide of the sequence ‘TFTSC’ that could be assigned (albeit not unambiguously) to the mature SST14 neuropeptide sequence itself.

T2 sequence (P05067 672-713 limits assumed): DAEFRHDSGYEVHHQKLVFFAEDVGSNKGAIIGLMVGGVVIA
T1 sequence (P05067 672-711 limits assumed): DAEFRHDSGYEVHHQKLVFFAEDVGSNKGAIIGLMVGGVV
Chain of Aβ1-42-TMR (P05067 672-713 limits assumed): as the sequence (P05067 672-713 limits assumed) above

2,4-dienoyl-CoA reductase, mitochondrial: human brain protein
Experiment III oAβ1-42-B/mAβ1-42-B Ratio [1]: 4.32

C[C@H](N)C(=O)NCC(=O)N[C@H]1CSSC[C@@H](C(=O)O)NC(=O)[C@H](CO)NC(=O)[C@H]([C@@H](C)O)NC(=O)[C@H](Cc2ccccc2)NC(=O)[C@H]([C@@H](C)O)NC(=O)[C@H](CCCCN)NC(=O)[C@H](Cc2c[nH]c3ccccc23)NC(=O)[C@H](Cc2ccccc2)NC(=O)[C@H](Cc2ccccc2)NC(=O)[C@H](CC(N)=O)NC(=O)[C@H](CCCCN)NC1=O [SST14, somatostatin-14]
EC50 [2]: 12.7 µM

ATP synthase subunit beta, mitochondrial: human brain protein
Experiment III oAβ1-42-B/mAβ1-42-B Ratio [1]: 2.61

Aβ1-40: synthetic human Aβ1-40, Anaspec AS-24236
lag phase of Aβ1-40 aggregation ([3]; peptide alone): 45 min

CST17: preprocortistatin-derived regulatory peptide, Bachem H-5536
lag phase extension of Aβ (Aβ1-42) aggregation ([4]; 5 to 10 times higher peptide concentrations, SST14 not shown): approximately one hour | concentration dependence of effect on Aβ1-42 aggregation ([4]; ThT, 37°C): concentration-dependent inhibition of Aβ1-42-dependent ThT fluorescence | relative potency versus SST14 in interfering with Aβ1-42 aggregation ([4]; compared with SST14 (at 15 μM in ThT assay)): more potent in this regard than SST14; also recorded: even more pronounced effects on Aβ aggregation than SST14 | inhibition of Aβ1-42-dependent ThT incorporation ([4]; peptide 15 μM, 37°C, 25 μM ThT): completely abrogated ThT incorporation | intensity of HMM 6E10 signals ([5]; 18 hr incubation, 6E10 Western blot): only very weak HMM signals | concentration dependence of 6E10-reactive blot signals ([5]; 18 hr incubation, varying SST14 or CST17 concentration): inverse correlation | masking of Aβ1-42 detection by antibodies 6E10, 4G8, 12F4 ([5]; 18 hr incubation, 4G8 and 12F4 not shown): masked the ability of these antibodies to bind to Aβ1-42 | silver-stain Aβ1-42 signal ([5]; silver-stain of same fractions): relatively stronger Aβ1-42 signals | lag phase extension of Aβ (Aβ1-40) aggregation ([3]; SST14 not shown): approximately one hour | intensity of homodimeric Aβ1-42 bands ([6]; Western blot lanes 17-20): reduced | size of SDS-resistant heterodimeric complex with mAβ1-42 ([6]; Western blot, x-42 and 6E10 antibodies): 5-6 kDa | detection of 50-60 kDa bands by antibody directed against C-terminus of Aβ1-42 ([6]; boiled in SDS): escaped detection with an antibody directed against the C-terminus of Aβ1-42 | SDS-stable complex with three Aβ1-42 peptides ([6]; Western blot): occasionally observed signals that migrated at molecular masses expected for SDS-stable complexes consisting of three Aβ1-42 peptides | effect on oAβ1-42-induced tau hyperphosphorylation [7]: did not prevent the anticipated tau hyperphosphosphorylation-inducing effect of oAβ1-42 exposure | potentiation of tau hyperphosphorylation with monomeric Aβ1-42 ([7]; pre-incubated peptide 4 µM + mAβ1-42 5 µM, 24 hr exposure): potentiate tau hyperphosphorylation

CST29: preprocortistatin-derived regulatory peptide, Bachem H-6458 (QEGAPPQQSARRDRMPCRNFFWKTFSSCK; ends and bridges not checked; cysteine pairing not given here; UniProt O00230 77-105, looked up)
effect on oAβ1-42-induced tau hyperphosphorylation [7]: did not prevent the anticipated tau hyperphosphosphorylation-inducing effect of oAβ1-42 exposure

Carbohydrate kinase domain-containing protein: human brain protein
Experiment III oAβ1-42-B/mAβ1-42-B Ratio [1]: 1.72 | Experiment II oAβ1-42-B/B Ratio [8]: 2.17

Cathepsin D: human brain protein
Experiment III oAβ1-42-B/mAβ1-42-B Ratio [1]: 2.10

Cofilin-1: human brain protein
Experiment III oAβ1-42-B/mAβ1-42-B Ratio [1]: 5.34 | Experiment II oAβ1-42-B/B Ratio [8]: 1.75

Dihydropyrimidinase-related protein 1: human brain protein
Experiment III oAβ1-42-B/mAβ1-42-B Ratio [1]: 3.71 | Experiment II oAβ1-42-B/B Ratio [8]: 1.39

Dihydropyrimidinase-related protein 3: human brain protein
Experiment III oAβ1-42-B/mAβ1-42-B Ratio [1]: 3.40 | Experiment II oAβ1-42-B/B Ratio [8]: 1.42

DnaJ homolog subfamily A member 2: human brain protein
Experiment III oAβ1-42-B/mAβ1-42-B Ratio [1]: 6.10

Interleukin enhancer-binding factor 2: human brain protein
Experiment III oAβ1-42-B/mAβ1-42-B Ratio [1]: 1.41

NFFWK
capture by Aβ baits (iTRAQ signature ion intensity) [9]: the free N-terminus is indeed essential for this peptide-peptide interaction | binding preference for oligomeric versus monomeric Aβ1-42-biotin (in words) ([1]; Experiment III, human frontal lobe extract): binds preferentially to oligomeric (pre-aggregated) but not monomeric Aβ1-42-biotin

Pyruvate kinase isozymes M1/M2: human brain protein
Experiment III oAβ1-42-B/mAβ1-42-B Ratio [1]: 4.33 | Experiment II oAβ1-42-B/B Ratio [8]: 1.68

Ras-related protein Rab-1A: human brain protein
Experiment III oAβ1-42-B/mAβ1-42-B Ratio [1]: 3.28

SST28: longer bioactive version of somatostatin, Anaspec AS-22902 (SANSNPAMAPRERKAGCKNFFWKTFTSC; ends and bridges not checked; cysteine pairing not given here; UniProt P61278 89-116, looked up)
effect on oAβ1-42-induced tau hyperphosphorylation [7]: did not prevent the anticipated tau hyperphosphosphorylation-inducing effect of oAβ1-42 exposure

Transforming protein RhoA: human brain protein
Experiment III oAβ1-42-B/mAβ1-42-B Ratio [1]: 5.74

[Arg8]-vasopressin [AVP]
lag phase extension of Aβ1-42 aggregation ([4]; 15 μM SST14 (or control peptide), SEC-purified Aβ1-42, 25 μM ThT, 37°C, shaking 700 rpm): No delay was observed | formation of 50-60 kDa Aβ1-42 bands (in words) ([6]; 18 hr co-incubation, 6E10): not seen in samples incubated either without these peptides or with AVP | SDS-stable complex with three Aβ1-42 peptides ([6]; Western blot): never observed in fractions lacking SST14 (or CST17) or containing AVP | reduction in tau phosphorylation at AT8, pre-aggregated peptide alone [7]: not seen

bombesin
reduction in tau phosphorylation at AT8, pre-aggregated peptide alone [7]: not seen

oxytocin: control neuropeptide, Anaspec AS-24275
reduction in tau phosphorylation at AT8, pre-aggregated peptide alone [7]: not seen
